Experiment [1] has as its target DNA. As to the kind of experiment: Microscale thermophoresis (MST) affinity for DNA. The experiment is classed as binding. In general terms: Microscale thermophoresis detects binding through changes in fluorescence in a small temperature gradient.
Experiment [2] has as its target pri-miR-96. As to the kind of experiment: Microscale thermophoresis (MST) affinity for pri-miR-96. The experiment is classed as binding.
For experiment [3], the system named is mature miR-96. Kind of experiment: RT-qPCR of mature miR-96 levels. The experiment is classed as cell-based. Conditions: MDA-MB-231 TNBC cells; 2 complexed with Fe2+ (1 equivalent).
The test system of experiment [4] is pri-miR-96. As to the kind of experiment: RT-qPCR of pri-miR-96 levels. The experiment is classed as cell-based. Background: In qPCR the cycle at which signal appears reflects the starting amount.
The subject of experiment [5] is mature miR-96. Conditions: triple negative breast cancer (TNBC) cells; cited from earlier work.
Experiment [6] relates to FOXO1 protein. Conditions: TNBC cells; cited from earlier work.
Experiment [7] relates to MDA-MB-231 cells. Conditions: TNBC cells; cited from earlier work.

This is an account of results in patent US12661409B2, “Target validation and profiling of the RNA targets of small molecules” (priority 2018, dated 2026).

For orientation: Kd means the equilibrium constant for the complex coming apart. Read a high Kd as weaker binding. In turn, `Cc1c(N)nc([C@H](CC(N)=O)NC[C@H](N)C(N)=O)nc1C(=O)N[C@H](C(=O)N[C@H](C)[C@@H](O)[C@H](C)C(=O)N[C@H](C(=O)NCCc1nc(-c2nc(C(=O)NCCCNCCCCN)cs2)cs1)[C@@H](C)O)[C@@H](O[C@@H]1O[C@@H](CO)[C@@H](O)[C@H](O)[C@@H]1O[C@@H]1O[C@H](CO)[C@@H](O)[C@H](OC(N)=O)[C@@H]1O)c1cnc[nH]1` [bleomycin A5] returned a dissociation constant Kd in experiment [1] of around 1000 nM.
Targaprimir-96 [Compound 1]: the affinity in experiment [2], expressed as Kd, was 39 ± 18 nM. The “Effect on mature miR-96 levels” value in experiment [3] is recorded as “reduced”. The “Effect on pri-miR-96 levels” value in experiment [4] (MDA-MB-231 TNBC cells, 2 complexed with Fe2+ (1 equivalent)) is listed as “increased”. In experiment [4] (increasing concentrations of 1 (5 to 500 nM), constant 2 (500 nM), MDA-MB-231 cells), the “Competition of the pri-miR-96 cleavage caused by 2” value is “effectively competed off”. In experiment [5], the “Effect on production of mature miR-96 (earlier study)” value is listed as “inhibited the production of mature miR-96”. Further, the “Effect on FOXO1 (earlier study)” value in experiment [6] was “de-repressed”. In addition, the “Effect on apoptosis (earlier study)” value in experiment [7] is “triggered apoptosis”.
